According to PMC9276671, “A first-in-human Phase I dose-escalation trial of the novel therapeutic peptide, ALM201, demonstrates a favourable safety profile in unselected patients with ovarian cancer and other advanced solid tumours” (British Journal of Cancer, 2022):
No end group written: not given here.

Assay: Plasma pharmacokinetics of ALM201 in Phase I patients (validated LC-MS/MS, Phoenix WinNonlin)
Conditions: human, plasma, sc; for Tmax: median; for Tmax / AUC(0-t) / Cmax: plasma LC-MS/MS; for AUC(0-t): AUC0-t; for AUC(0-t) / Cmax: Gmean (CV); for level at 0.25 h / level at 0.75 h / level at 1.5 h / level at 2 h / level at 3 h / level at 4 h / level at 5 h / level at 6 h / level at 0.5 h / level at 1 h / level at 3.5 h: Plasma concentration, geometric mean (CV%), LC-MS/MS; for level at 0.25 h: day 1 cycle 1, 0.25 h after dosing; for level at 0.75 h: day 1 cycle 1, 0.75 h after dosing; for level at 3 h: day 1 cycle 1, 3 h after dosing; for level at 4 h: day 1 cycle 1, 4 h after dosing; for level at 6 h: day 1 cycle 1, 6 h after dosing
[1] = 100 mg, 100 mg SC, day 1 cycle 1, n = 4
[2] = 100 mg, 100 mg SC, day 3 cycle 1, n = 4
[3] = 100 mg, 100 mg SC, day 18 cycle 1, n = 2, CV not calculated
[4] = 100 mg, 100 mg SC, day 18 cycle 2, n = 1
[5] = 160 mg, 160 mg SC, day 1 cycle 1, n = 3
[6] = 160 mg, 160 mg SC, day 3 cycle 1, n = 3
[7] = 160 mg, 160 mg SC, day 18 cycle 1, n = 3
[8] = 160 mg, 160 mg SC, day 18 cycle 2, n = 1
[9] = 200 mg, 200 mg SC, day 1 cycle 1, n = 4
[10] = 200 mg, 200 mg SC, day 3 cycle 1, n = 4
[11] = 200 mg, 200 mg SC, day 18 cycle 1, n = 3
[12] = 200 mg, 200 mg SC, day 18 cycle 4, n = 2, CV not calculated

IRQQPRDPPTETLELEVSPDPAS [ALM201]
Tmax (80 mg, 80 mg SC, day 18 cycle 2, n = 1): 3.5 h | AUC(0-t) [1]: 6280 ng·h/mL | AUC(0-t) [2]: 8870 ng·h/mL | AUC(0-t) [3]: 8100 ng·h/mL | AUC(0-t) [4]: 5930 ng·h/mL | Cmax [1]: 1810 ng/mL | Cmax [2]: 2750 ng/mL | Cmax [3]: 2330 ng/mL | Cmax [4]: 1790 ng/mL | level at 0.25 h (100 mg, 100 mg SC, n = 4): 492 ng/mL | level at 0.75 h (100 mg, 100 mg SC, n = 4): 1220 ng/mL | level at 1.5 h (100 mg, 100 mg SC, day 1 cycle 1, 1.5 h after dosing, n = 4): 1810 ng/mL | level at 2 h (100 mg, 100 mg SC, day 1 cycle 1, 2 h after dosing, n = 4): 1590 ng/mL | level at 3 h (100 mg, 100 mg SC, n = 4): 1150 ng/mL | level at 4 h (100 mg, 100 mg SC, n = 4): 922 ng/mL | level at 5 h (100 mg, 100 mg SC, day 1 cycle 1, 5 h after dosing, n = 4, NQ value substituted with 100 ng/mL): 664 ng/mL | level at 6 h (100 mg, 100 mg SC, n = 4, NQ value substituted with 100 ng/mL): 560 ng/mL | level at 0.5 h (100 mg, 100 mg SC, day 3 cycle 1, 0.5 h after dosing, n = 4): 1730 ng/mL | level at 1 h (100 mg, 100 mg SC, day 3 cycle 1, 1 h after dosing, n = 4): 2100 ng/mL | level at 1.5 h (100 mg, 100 mg SC, day 3 cycle 1, 1.5 h after dosing, n = 4): 2530 ng/mL | level at 2 h (100 mg, 100 mg SC, day 3 cycle 1, 2 h after dosing, n = 4): 2400 ng/mL | level at 3.5 h (100 mg, 100 mg SC, day 3 cycle 1, 3.5 h after dosing, n = 4): 1690 ng/mL | level at 5 h (100 mg, 100 mg SC, day 3 cycle 1, 5 h after dosing, n = 4): 928 ng/mL | level at 0.5 h (100 mg, 100 mg SC, day 18 cycle 1, 0.5 h after dosing, n = 2): 1890 ng/mL | level at 1 h (100 mg, 100 mg SC, day 18 cycle 1, 1 h after dosing, n = 2): 1840 ng/mL | level at 1.5 h (100 mg, 100 mg SC, day 18 cycle 1, 1.5 h after dosing, n = 2): 2210 ng/mL | level at 2 h (100 mg, 100 mg SC, day 18 cycle 1, 2 h after dosing, n = 2): 2130 ng/mL | level at 3.5 h (100 mg, 100 mg SC, day 18 cycle 1, 3.5 h after dosing, n = 2): 1490 ng/mL | level at 5 h (100 mg, 100 mg SC, day 18 cycle 1, 5 h after dosing, n = 2): 961 ng/mL | level at 0.5 h (100 mg, 100 mg SC, day 18 cycle 2, 0.5 h after dosing, n = 1): 1060 ng/mL | level at 1 h (100 mg, 100 mg SC, day 18 cycle 2, 1 h after dosing, n = 1): 1790 ng/mL | level at 1.5 h (100 mg, 100 mg SC, day 18 cycle 2, 1.5 h after dosing, n = 1): 1710 ng/mL | level at 2 h (100 mg, 100 mg SC, day 18 cycle 2, 2 h after dosing, n = 1): 1570 ng/mL | level at 3.5 h (100 mg, 100 mg SC, day 18 cycle 2, 3.5 h after dosing, n = 1): 1180 ng/mL | Tmax [1]: 1.5 h | Tmax [2]: 1.61 h | Tmax (100 mg, 100 mg SC, day 18 cycle 1, n = 2): 1.9 h | Tmax [4]: 1.02 h | AUC(0-t) [5]: 6510 ng·h/mL | AUC(0-t) [6]: 5100 ng·h/mL | AUC(0-t) [7]: 4930 ng·h/mL | AUC(0-t) [8]: 5710 ng·h/mL | Cmax [5]: 1990 ng/mL | Cmax [6]: 1490 ng/mL | Cmax [7]: 1350 ng/mL | Cmax [8]: 1870 ng/mL | level at 0.25 h (160 mg, 160 mg SC, n = 3): 833 ng/mL | level at 0.75 h (160 mg, 160 mg SC, n = 3): 1570 ng/mL | level at 1.5 h (160 mg, 160 mg SC, day 1 cycle 1, 1.5 h after dosing, n = 3): 1670 ng/mL | level at 2 h (160 mg, 160 mg SC, day 1 cycle 1, 2 h after dosing, n = 3): 1480 ng/mL | level at 3 h (160 mg, 160 mg SC, n = 3): 1280 ng/mL | level at 4 h (160 mg, 160 mg SC, n = 3): 866 ng/mL | level at 5 h (160 mg, 160 mg SC, day 1 cycle 1, 5 h after dosing, n = 3): 510 ng/mL | level at 6 h (160 mg, 160 mg SC, n = 3): 283 ng/mL | level at 0.5 h (160 mg, 160 mg SC, day 3 cycle 1, 0.5 h after dosing, n = 3): 956 ng/mL | level at 1 h (160 mg, 160 mg SC, day 3 cycle 1, 1 h after dosing, n = 3): 1270 ng/mL | level at 1.5 h (160 mg, 160 mg SC, day 3 cycle 1, 1.5 h after dosing, n = 3): 1460 ng/mL | level at 2 h (160 mg, 160 mg SC, day 3 cycle 1, 2 h after dosing, n = 3): 1350 ng/mL | level at 3.5 h (160 mg, 160 mg SC, day 3 cycle 1, 3.5 h after dosing, n = 3): 926 ng/mL | level at 5 h (160 mg, 160 mg SC, day 3 cycle 1, 5 h after dosing, n = 3): 613 ng/mL | level at 0.5 h (160 mg, 160 mg SC, day 18 cycle 1, 0.5 h after dosing, n = 3): 940 ng/mL | level at 1 h (160 mg, 160 mg SC, day 18 cycle 1, 1 h after dosing, n = 3): 1150 ng/mL | level at 1.5 h (160 mg, 160 mg SC, day 18 cycle 1, 1.5 h after dosing, n = 3): 1280 ng/mL | level at 2 h (160 mg, 160 mg SC, day 18 cycle 1, 2 h after dosing, n = 3): 1200 ng/mL | level at 3.5 h (160 mg, 160 mg SC, day 18 cycle 1, 3.5 h after dosing, n = 3): 995 ng/mL | level at 5 h (160 mg, 160 mg SC, day 18 cycle 1, 5 h after dosing, n = 3): 577 ng/mL | level at 0.5 h (160 mg, 160 mg SC, day 18 cycle 2, 0.5 h after dosing, n = 1): 1380 ng/mL | level at 1 h (160 mg, 160 mg SC, day 18 cycle 2, 1 h after dosing, n = 1): 1380 ng/mL | level at 1.5 h (160 mg, 160 mg SC, day 18 cycle 2, 1.5 h after dosing, n = 1): 1650 ng/mL | level at 2 h (160 mg, 160 mg SC, day 18 cycle 2, 2 h after dosing, n = 1): 1870 ng/mL | level at 3.5 h (160 mg, 160 mg SC, day 18 cycle 2, 3.5 h after dosing, n = 1): 870 ng/mL | Tmax [5]: 1.52 h | Tmax [8]: 2 h | AUC(0-t) [9]: 5860 ng·h/mL | AUC(0-t) [10]: 6630 ng·h/mL | AUC(0-t) [11]: 5570 ng·h/mL | AUC(0-t) [12]: 6110 ng·h/mL | Cmax [9]: 1490 ng/mL | Cmax [10]: 1620 ng/mL | Cmax [11]: 1670 ng/mL | Cmax (200 mg, 200 mg SC, day 18 cycle 2, n = 2, CV not calculated): 1890 ng/mL | Cmax [12]: 1680 ng/mL | level at 0.25 h (200 mg, 200 mg SC, n = 4): 479 ng/mL | level at 0.75 h (200 mg, 200 mg SC, n = 4): 1040 ng/mL | level at 1.5 h (200 mg, 200 mg SC, day 1 cycle 1, 1.5 h after dosing, n = 4): 1240 ng/mL | level at 2 h (200 mg, 200 mg SC, day 1 cycle 1, 2 h after dosing, n = 4): 1370 ng/mL | level at 3 h (200 mg, 200 mg SC, n = 4): 1360 ng/mL | level at 4 h (200 mg, 200 mg SC, n = 4): 1050 ng/mL | level at 5 h (200 mg, 200 mg SC, day 1 cycle 1, 5 h after dosing, n = 4): 620 ng/mL
